Source: patent US12252524B2, “GIP/GLP1 co-agonist compounds” (Eli Lilly and Company, priority 2018, dated 2025)
Numbered stars: 1 amine (or outer) side, 2 acyl side, 3 side chain; on linkers, the order of the positions; unused ones are H or OH. Square brackets hold non-standard residues; d marks the D form. Side chains are listed from the residue outwards. Peptide text beside a SMILES is read from it. * marks the point of attachment. C20 diacid = O=C(O)CCCCCCCCCCCCCCCCCCC(=O)*; C18 diacid = O=C(O)CCCCCCCCCCCCCCCCC(=O)*; γGlu = O=C(O)[C@H](CCC(=O)[*:2])N[*:1]; αMeY = C[C@](N)(Cc1ccc(O)cc1)C(=O)O; αMeL = CC(C)C[C@](C)(N)C(=O)O; Orn = NCCC[C@H](N)C(=O)O; AEEA = NCCOCCOCC(=O)O; Aib = CC(C)(N)C(=O)O

Legend:
human GLP-1R [1] = molecular target: T1, human GLP-1R (Homo sapiens, UniProt P43220); experiment: GLP-1R HEK293 cell membrane [35S]GTPγS binding assay; assay type: biochemical; parameters: expressed in transfected cells; host or cells: HEK293 cells expressing human GLP-1R; membranes; settings: HEK293 cell membranes expressing human GLP-1R, [35S]GTPγS binding; read-out: hGLP1R GTPgS Rel EC50 nM (SEM, n)
T1 sequence (P43220 24-463): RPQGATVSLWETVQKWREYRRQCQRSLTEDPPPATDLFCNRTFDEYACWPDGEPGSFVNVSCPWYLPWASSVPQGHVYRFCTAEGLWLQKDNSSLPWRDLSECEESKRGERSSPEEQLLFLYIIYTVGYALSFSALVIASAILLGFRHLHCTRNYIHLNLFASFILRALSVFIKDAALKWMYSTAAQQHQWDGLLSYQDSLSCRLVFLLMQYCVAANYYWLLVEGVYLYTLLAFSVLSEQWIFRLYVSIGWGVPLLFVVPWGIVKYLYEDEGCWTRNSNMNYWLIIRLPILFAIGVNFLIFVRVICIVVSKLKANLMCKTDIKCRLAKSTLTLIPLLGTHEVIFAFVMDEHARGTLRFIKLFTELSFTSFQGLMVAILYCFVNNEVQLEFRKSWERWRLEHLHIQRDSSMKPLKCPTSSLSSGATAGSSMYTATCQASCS
Outline: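 Agonist-driven Gαs activation read as [35S]GTPγS ([…]) binding to receptor-expressing HEK293 membranes, 30 min at room temperature, pH 7.4. Detection by anti-Gαs immunocapture on scintillation beads; EC50 derived from four-parameter logistic concentration-response fit.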

[2] = molecular target: T2, gastric inhibitory peptide receptor (GIPR) (Homo sapiens, UniProt P48546); experiment: cAMP pharmacological functional assay in presence of casein, hGIPR; assay type: cell-based; settings: HEK293 cells expressing hGIPR, 0.1% Casein, geometric mean; read-out: hGIPR cAMP Rel EC50 nM (SEM, n)
T2 sequence (P48546 22-466): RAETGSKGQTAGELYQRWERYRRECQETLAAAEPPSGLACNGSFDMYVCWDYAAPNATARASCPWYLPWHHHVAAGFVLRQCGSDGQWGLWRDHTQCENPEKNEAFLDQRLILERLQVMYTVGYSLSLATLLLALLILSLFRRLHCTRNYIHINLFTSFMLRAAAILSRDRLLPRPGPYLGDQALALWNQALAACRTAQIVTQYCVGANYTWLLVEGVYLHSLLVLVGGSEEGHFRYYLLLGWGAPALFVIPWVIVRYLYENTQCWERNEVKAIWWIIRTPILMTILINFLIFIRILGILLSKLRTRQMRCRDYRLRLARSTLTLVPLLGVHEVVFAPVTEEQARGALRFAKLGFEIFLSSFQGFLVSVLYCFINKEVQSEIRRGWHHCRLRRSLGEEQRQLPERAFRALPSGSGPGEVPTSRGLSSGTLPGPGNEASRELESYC

human GLP-1R [3] = molecular target: T1, human GLP-1R; experiment: GLP-1R CHO cell β-arrestin recruitment assay; assay type: cell-based; parameters: host or cells: CHO-K1 PathHunter cells, assay-ready frozen; settings: for EC50: CHO-K1 cells; for hGLP1R B-Arrestin2 % Top: normalized to GLP-1 maximum control
Outline: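 Peptide-induced β-arrestin-2 recruitment measured by enzyme-fragment complementation luminescence after 90 min at 37 °C plus 60 min detection at RT.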

[4] = molecular target: human GLP-1 receptor (GLP-1R) (Homo sapiens, UniProt P43220); experiment: cAMP pharmacological functional assay in presence of casein, hGLP-1R; assay type: cell-based; settings: HEK293 cells expressing hGLP-1R, 0.1% Casein, geometric mean; read-out: hGLP1R cAMP Rel EC50 nM (SEM, n)
Sequence of human GLP-1 receptor (GLP-1R) (P43220 24-463): as the sequence (P43220 24-463) above

[5] = PathHunter β-arrestin-2 recruitment, 0.1% casein, read-out: hGLP1R B-Arrestin2 Rel EC50 uM (SEM, n)

Row | Compound | EC50 (human GLP-1R [1]) | EC50 [2] | EC50 (human GLP-1R [3]; [5]) | hGLP1R B-Arrestin2 % Top (human GLP-1R [3]) | EC50 [4] | EC50 (human GLP-1R [3]; 0.1% w/v hydrolyzed Casein, read-out: hGLP1R B-Arrestin2 Rel EC50)
1 | CC[C@H](C)[C@H](NC(=O)[C@H](CC(C)C)NC(=O)[C@](C)(Cc1ccc(O)cc1)NC(=O)[C@H](CCC(=O)O)NC(=O)[C@@H](NC(=O)[C@H](Cc1ccccc1)NC(=O)[C@H](C)NC(=O)C(C)(C)NC(=O)[C@H](CCC(N)=O)NC(=O)[C@H](C)NC(=O)[C@H](CCCCNC(=O)COCCOCCNC(=O)COCCOCCNC(=O)CC[C@H](NC(=O)CCCCCCCCCCCCCCCCC(=O)O)C(=O)O)NC(=O)[C@H](CCCN)NC(=O)[C@H](CC(=O)O)NC(=O)[C@H](CC(C)C)NC(=O)[C@](C)(CC(C)C)NC(=O)[C@@H](NC(=O)[C@H](CO)NC(=O)[C@H](Cc1ccc(O)cc1)NC(=O)[C@H](CC(=O)O)NC(=O)[C@H](CO)NC(=O)[C@@H](NC(=O)[C@H](Cc1ccccc1)NC(=O)[C@@H](NC(=O)CNC(=O)[C@H](CCC(=O)O)NC(=O)C(C)(C)NC(=O)[C@H](N)Cc1ccc(O)cc1)[C@@H](C)O)[C@@H](C)O)[C@@H](C)CC)[C@@H](C)CC)C(=O)N[C@@H](C)C(=O)NCC(=O)NCC(=O)N1CCC[C@H]1C(=O)N[C@@H](CO)C(=O)N[C@@H](CO)C(=O)NCC(=O)N[C@@H](C)C(=O)N1CCC[C@H]1C(=O)N1CCC[C@H]1C(=O)N1CCC[C@H]1C(=O)N[C@@H](CO)C(N)=O [Example 377] (H-[dY][Aib]EGTFTSDYSI[αMeL]LD[Orn]K([AEEA-AEEA-γGlu-C18 diacid])AQ[Aib]AFIE[αMeY]LIAGGPSSGAPPPS-NH2) | 0.356 nM | 0.0544 nM | 0.00532 µM | 16.7% | 0.136 nM | –
2 | CC[C@H](C)[C@H](NC(=O)[C@H](CC(C)C)NC(=O)[C@H](Cc1ccc(O)cc1)NC(=O)[C@H](CCC(=O)O)NC(=O)[C@@H](NC(=O)[C@H](Cc1ccccc1)NC(=O)[C@H](CCC(=O)O)NC(=O)C(C)(C)NC(=O)[C@H](CCC(N)=O)NC(=O)[C@H](C)NC(=O)[C@H](CCCCNC(=O)COCCOCCNC(=O)CC[C@H](NC(=O)CCCCCCCCCCCCCCCCCCC(=O)O)C(=O)O)NC(=O)[C@H](CCCCN)NC(=O)[C@H](CC(=O)O)NC(=O)[C@H](CC(C)C)NC(=O)[C@](C)(CC(C)C)NC(=O)[C@@H](NC(=O)[C@H](CO)NC(=O)[C@H](Cc1ccc(O)cc1)NC(=O)[C@H](CC(=O)O)NC(=O)[C@H](CO)NC(=O)[C@@H](NC(=O)[C@H](Cc1ccccc1)NC(=O)[C@@H](NC(=O)CNC(=O)[C@H](CCC(=O)O)NC(=O)C(C)(C)NC(=O)[C@H](N)Cc1ccc(O)cc1)[C@@H](C)O)[C@@H](C)O)[C@@H](C)CC)[C@@H](C)CC)C(=O)N[C@@H](C)C(=O)NCC(=O)NCC(=O)N1CCC[C@H]1C(=O)N[C@@H](CO)C(=O)N[C@@H](CO)C(=O)NCC(=O)N[C@@H](C)C(=O)N1CCC[C@H]1C(=O)N1CCC[C@H]1C(=O)N1CCC[C@H]1C(=O)N[C@@H](CO)C(N)=O [Example 378] (H-[dY][Aib]EGTFTSDYSI[αMeL]LDKK([AEEA-γGlu-C20 diacid])AQ[Aib]EFIEYLIAGGPSSGAPPPS-NH2) | 0.359 nM | 0.067 nM | > 10.2 µM | – | 0.191 nM | > 10.2 µM
3 | CC[C@H](C)[C@H](NC(=O)[C@H](CC(C)C)NC(=O)[C@](C)(Cc1ccc(O)cc1)NC(=O)[C@H](CCC(=O)O)NC(=O)[C@@H](NC(=O)[C@H](Cc1ccccc1)NC(=O)[C@H](CCC(=O)O)NC(=O)C(C)(C)NC(=O)[C@H](CCC(N)=O)NC(=O)[C@H](C)NC(=O)[C@H](CCCCNC(=O)COCCOCCNC(=O)COCCOCCNC(=O)CC[C@H](NC(=O)CCCCCCCCCCCCCCCCCCC(=O)O)C(=O)O)NC(=O)[C@H](CCCCN)NC(=O)[C@H](CC(=O)O)NC(=O)[C@H](CC(C)C)NC(=O)[C@](C)(CC(C)C)NC(=O)[C@@H](NC(=O)[C@H](CO)NC(=O)[C@H](Cc1ccc(O)cc1)NC(=O)[C@H](CC(=O)O)NC(=O)[C@H](CO)NC(=O)[C@@H](NC(=O)[C@H](Cc1ccccc1)NC(=O)[C@@H](NC(=O)CNC(=O)[C@H](CCC(=O)O)NC(=O)C(C)(C)NC(=O)[C@H](N)Cc1ccc(O)cc1)[C@@H](C)O)[C@@H](C)O)[C@@H](C)CC)[C@@H](C)CC)C(=O)N[C@@H](CCC(=O)O)C(=O)NCC(=O)NCC(=O)N1CCC[C@H]1C(=O)N[C@@H](CO)C(=O)N[C@@H](CO)C(=O)NCC(=O)N[C@@H](C)C(=O)N1CCC[C@H]1C(=O)N1CCC[C@H]1C(=O)N1CCC[C@H]1C(=O)N[C@@H](CO)C(N)=O [Example 379] (H-[dY][Aib]EGTFTSDYSI[αMeL]LDKK([AEEA-AEEA-γGlu-C20 diacid])AQ[Aib]EFIE[αMeY]LIEGGPSSGAPPPS-NH2) | 0.239 nM | 0.079 nM | 0.0181 µM | 31.9% | 0.238 nM | –
4 | CC[C@H](C)[C@H](NC(=O)[C@H](CC(C)C)NC(=O)[C@](C)(Cc1ccc(O)cc1)NC(=O)[C@H](CCC(=O)O)NC(=O)[C@@H](NC(=O)[C@H](Cc1ccccc1)NC(=O)[C@H](CCC(=O)O)NC(=O)C(C)(C)NC(=O)[C@H](CCC(N)=O)NC(=O)[C@H](C)NC(=O)[C@H](CCCCNC(=O)COCCOCCNC(=O)COCCOCCNC(=O)CC[C@H](NC(=O)CCCCCCCCCCCCCCCCCCC(=O)O)C(=O)O)NC(=O)[C@H](CCCN)NC(=O)[C@H](CC(=O)O)NC(=O)[C@H](CC(C)C)NC(=O)[C@](C)(CC(C)C)NC(=O)[C@@H](NC(=O)[C@H](CO)NC(=O)[C@H](Cc1ccc(O)cc1)NC(=O)[C@H](CC(=O)O)NC(=O)[C@H](CO)NC(=O)[C@@H](NC(=O)[C@H](Cc1ccccc1)NC(=O)[C@@H](NC(=O)CNC(=O)[C@H](CCC(=O)O)NC(=O)C(C)(C)NC(=O)[C@H](N)Cc1ccc(O)cc1)[C@@H](C)O)[C@@H](C)O)[C@@H](C)CC)[C@@H](C)CC)C(=O)N[C@@H](CCC(=O)O)C(=O)NCC(=O)NCC(=O)N1CCC[C@H]1C(=O)N[C@@H](CO)C(=O)N[C@@H](CO)C(=O)NCC(=O)N[C@@H](C)C(=O)N1CCC[C@H]1C(=O)N1CCC[C@H]1C(=O)N1CCC[C@H]1C(=O)N[C@@H](CO)C(N)=O [Example 380] (H-[dY][Aib]EGTFTSDYSI[αMeL]LD[Orn]K([AEEA-AEEA-γGlu-C20 diacid])AQ[Aib]EFIE[αMeY]LIEGGPSSGAPPPS-NH2) | 0.188 nM | 0.142 nM | 0.0137 µM | 35% | 0.236 nM | –
